d = 2'-deoxy (DNA); r = 2'-OH (RNA)
How the values were obtained:
LNCaP cells = assay: methylene blue (MB) cell viability assay after siRNA transfection; format: cell-based; settings: Lipofectamine 2000 transfection, 72 hours incubation, FIG. 1
Procedure: Prostate cancer cell line LNCaP (ATCC # CRL-1740) was grown in Roswell Park Memorial Institute medium (RPMI) supplemented with 10% fetal bovine serum (FBS) and 100 units/ml penicillin/streptomycin, according to the ATCC protocol. Cells were seeded into 96-well culture plates and incubated overnight before transfection with siRNAs targeting HSP90 sequences.
Cells were transfected using Lipofectamine® 2000 transfection reagent (Life Technologies) based on manufacturer's protocol, with siRNA targeting HSP90: HSP1-1 (sense strand SEQ ID NO: 4, anti-sense strand SEQ ID NO: 8), HSP1-2 (sense strand SEQ ID NO: 5, anti-sense strand SEQ ID NO: 9), and HSP1-3 (sense strand SEQ ID NO: 6, anti-sense strand SEQ ID NO: 10). Cells were also treated with HSP90 inhibitor NVP-AUY922 (or AUY922), a resorcinylicisoxazole amide was used at 5 nM and 10 nM (with similar effect), or left untreated. After 72 hours incubation, cellular viability was determined by standard methylene blue (MB) assay, and quantitated as percentage of viable cells in relation to the untreated sample (FIG. 1).

Androgen receptor = assay: AR-dependent luciferase reporter assay in transfected LNCaP cells; format: cell-based; settings: co-transfection, 24 hours post-transfection, vs mock, p<0.05, FIG. 2
Procedure: HPS90 is known to be a chaperone of AR (androgen receptor), and is necessary for correct AR post-translational processing. To further test RNAi targeting of HSP90, an AR-dependent luciferase reporter construct was used (FIG. 2). LNCaP cells were cultured as above, and were seeded onto a 48-well culture plate. After an overnight incubation, plated cells were co-transfected using Lipofectamine® 2000 transfection reagent (Life Technologies) based on manufacturer's protocol for DNA-RNA transfections with an AR-luciferase reporter plasmid (Qiagen, CCS-1019L), and siRNA targeting HSP90 (HSP1-1 (sense strand SEQ ID NO: 4, anti-sense strand SEQ ID NO: 8); AR (siAR-1), or a non-target scrambled siRNA (si-scr). Cells transfected only with the AR-luciferase reported plasmid served as the negative control (mock). 24 hours post-transfection, cells were lysed and luciferase activity determined with the Promega luciferase detection kit.

| Substance | cellular viability (percentage of viable cells in relation to the untreated sample) (LNCaP cells) | luciferase activity of AR-luciferase reporter plasmid (Androgen receptor) |
| --- | --- | --- |
| HSP1-1: siRNA targeting HSP90, sense strand SEQ ID NO: 4, anti-sense strand SEQ ID NO: 8 (sense 5'-AAG ACC AAC CGA UGG AGGAdTdT-3'; antisense 5'-UCC UCC AUC GGU UGG UCUUdTdT-3; as printed in the source, key not given here) | statistically significant decrease | significantly decreased |
| HSP1-2: siRNA targeting HSP90, sense strand SEQ ID NO: 5, anti-sense strand SEQ ID NO: 9 (sense AAGAGCUGCAUAUUAACCUTT; antisense AGGUUAAUAUGCAGCUCUUTT; sugars from the 5' end r19 d2, backbone not given here) | statistically significant decrease | – |
| HSP1-3: siRNA targeting HSP90, sense strand SEQ ID NO: 6, anti-sense strand SEQ ID NO: 10 (sense AAGUCUGGGACCAAAGCGUTT; antisense ACGCUUUGGUCCCAGACUUTT; sugars from the 5' end r19 d2, backbone not given here) | statistically significant decrease | – |

Reference: patent publication US10006030B2, “RNA interference compositions targeting heat shock protein 90 and methods of use thereof” (SILENSEED LTD., priority 2014, dated 2018)
